This is an account of results in PubChem BioAssay AID602267 (Broad Institute, 2012).

Calls of active or inactive are those of the source.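 Rule for the calls: active = signal falls with dose and the fitted half-maximal concentration is at or below twice the top valid tested dose; inconclusive = flat curve with 30 to 70% inhibition, or poor fit; inactive = wrong direction, flat within 30%, or potency beyond limit.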

In one experiment the target is Golgi-associated PDZ and coiled-coil motif-containing protein (Homo sapiens) (UniProt Q9HD26). Nature of the experiment: blockers of CAL PDZ ligand groove binding – biochemical, fluorescence polarization, untagged CAL PDZ, cherry-pick, dose response (AID 602267). Conditions: purified CAL PDZ, TMR-peptide fluorescence polarization, 1 h. In general terms: Fluorescence polarisation rises when a labelled molecule tumbles more slowly, as on binding a larger partner.
Take `COc1ccc(OC)c(-c2c3cc(O)c(=O)cc-3oc3cc(O)c(O)cc23)c1`: the concentration at half-maximal activity (AC50) (usually the concentration at which the activity in the assay is half-maximal) was 21.4 µM.
The same measure, in the same setting: then `O=C(O)CSc1cc(NS(=O)(=O)c2cccc([N+](=O)[O-])c2)c2ccccc2c1O`, with 15.9 µM.

The same experiment, now with this note: purified CAL PDZ, TMR-peptide fluorescence polarization, 1 h; at 16 µM (top of the series).
As for `CCOC(=O)C1(Cc2cccc(Cl)c2)CCCN(C(=O)c2cccc(C)n2)C1` (centres undefined), the “activity change, negative = inhibition” value was “inactive”.

The same experiment, now with this note: purified CAL PDZ, TMR-peptide fluorescence polarization, 1 h; at 50 µM (top of the series).
Take `CCCn1nnnc1NCc1cc(Br)ccc1OC`: the “activity change, negative = inhibition” value is “inactive”.
`c1ccc(CNc2nc(NCc3ccccc3)c3ccccc3n2)cc1`: the “activity change, negative = inhibition” value is “inactive”.
Regarding `O=C(c1ccc([N+](=O)[O-])cc1)N1CCC(Cc2ccccc2)CC1`, the “activity change, negative = inhibition” value was “inactive”.
For the compound `CNC(=O)c1nnn(Cc2ccccc2)c1NC(C)=O`, the “activity change, negative = inhibition” value was “inactive”.
For `Cc1c(C(=O)OCC(=O)NC(=O)NC2CCCCC2)cccc1[N+](=O)[O-]`, the “activity change, negative = inhibition” value is “inactive”.
Same read-out and setting: the value for `Cn1c(=O)c2c(nc(SCC(=O)NCC3CCCO3)n2Cc2ccc(F)cc2)n(C)c1=O` (centres undefined) was “inactive”; that for `Cc1cccc(NS(=O)(=O)Cc2ccccc2)c1C` was “inactive”; that for `COc1ccc(/C=C/C(=O)Nc2ccc3nc4n(c(=O)c3c2)CCCC4)cc1OC` was “inactive”.
For `O=C1OC2(CCCCC2)OC(=O)C1=CNc1nc2ccccc2s1`, the “activity change, negative = inhibition” value is “inactive”.
The same measure, in the same setting: then `CC(=O)Nc1sc2c(c1C(c1ccccn1)N1CCN(C)CC1)CCCC2` (centres undefined), with “inactive”.
Same read-out and setting: then `N=c1c(S(=O)(=O)c2ccc(Cl)cc2)cc2c(=O)n3ccccc3nc2n1C1CCCCC1`, with “inactive”.
Still for that read-out and setting: then `COc1cc(NC(=O)c2cccs2)ccc1NC(=O)c1ccccc1Cl`, with “inactive”; and `CC1Cc2ccccc2N1C(=O)CNc1ccccc1N1CCCCC1` (centres undefined), with “inactive”.
In the case of `O=C(CSc1nccc(=O)[nH]1)Nc1ccc(Oc2ccccc2)cc1`, the “activity change, negative = inhibition” value is “inactive”.
With `O=C(O)CC1(CC(=O)Nc2ccc(Br)cc2)CCCCC1`, the “activity change, negative = inhibition” value is “inactive”.
On the same count and under the same terms, then `COc1ccc(Br)c(C(=O)NC2CCCC2)c1`, with “inactive”.
For the compound `COc1ccc(NC(=O)c2ccc3c(c2)NC(=O)CO3)cc1OC`, the “activity change, negative = inhibition” value was “inactive”.
For `Cc1cc(NC(=O)Cc2ccc(Br)cc2)no1`, the “activity change, negative = inhibition” value is “inactive”.
As to `COc1ccc(NC(=O)c2cnn(-c3ccccc3)c2C)c(OC)c1`, the “activity change, negative = inhibition” value is “inactive”.
`CSc1ccc(CNCCCSc2ncccn2)cc1`: the “activity change, negative = inhibition” value was “inactive”.
Same read-out and setting: then `CCc1nnc(NS(=O)(=O)c2ccc(NC(=O)CCC(=O)O)cc2)s1`, with “inactive”; and `CN1CCN(c2ccccc2NC(=O)c2ccc(N3CCCC3)c([N+](=O)[O-])c2)CC1`, with “inactive”.
For `Cc1nn(C)cc1CN(C)C(=O)c1nn2c(c1Br)NC(c1cccs1)CC2C(F)(F)F` (centres undefined), the “activity change, negative = inhibition” value is “inactive”.
On the same count and under the same terms, the value for `O=C(CN1CC[n+]2c(-c3cccs3)csc21)c1ccc(-c2ccccc2)cc1` was “inactive”.
Same read-out and setting: the value for `NC(=O)C1CCN(c2ncccc2[N+](=O)[O-])CC1` was “inactive”; that for `CCCCN(CCCC)CCNC(=O)c1ccc2nc(-c3ccccc3NC(C)=O)c(=O)[nH]c2c1` was “inactive”.
Still for that read-out and setting: the value for `CCOc1ccc(NC(=O)c2nsc(Cl)c2Cl)cc1` was “inactive”; that for `Cc1cccc(C(=O)Nc2nnc(COc3ccccc3)s2)c1` was “inactive”.
Turning to `CCCOc1ccc(CC(=O)N/N=C\c2ccc(F)cc2)cc1`, the “activity change, negative = inhibition” value is “inactive”.
For the compound `Cc1ccc(-c2[nH]c3ccccc3c2SCCN)cc1`, the “activity change, negative = inhibition” value was “inactive”.
On the same count and under the same terms, then `Cc1ccc(NC(=O)N2CCCC2C(=O)NCC2CCCO2)cc1` (centres undefined), with “inactive”.
Same read-out and setting: then `COc1ccccc1NC(=O)c1c([N+](=O)[O-])cnn1C`, with “inactive”.
The same measure, in the same setting: then `CC(=O)N1N=C(c2ccccc2)CC1c1ccccc1` (centres undefined), with “inactive”; and `CCNC(=S)N1CCc2cc(OC)c(OC)cc2C1COc1ccc(OC)cc1` (centres undefined), with “inactive”.
With `COC(=O)c1cccc([N+](=O)[O-])c1CS(=O)(=O)c1ccc(C)cc1`, the “activity change, negative = inhibition” value is “inactive”.
On to `C[n+]1ccc(C(=O)Nc2ccccc2Cl)cc1`, for which the “activity change, negative = inhibition” value was “inactive”.
The same measure, in the same setting: then `Cc1cc(C)c2nc(-c3ccncc3)cc(C(=O)N3CCN(Cc4ccccc4Cl)CC3)c2c1`, with “inactive”.
Still for that read-out and setting: the value for `CCOc1ccc(N(CC(=O)N2CCN(Cc3ccccc3)CC2)S(C)(=O)=O)cc1` was “inactive”; that for `CCC(=O)Nc1ccc(S(=O)(=O)NCc2ccco2)cc1` was “inactive”; that for `Cc1ccc2nc(-c3cccc(Br)c3)cc(C(=O)NC3=NCCS3)c2c1` was “inactive”.
Turning to `COc1ccc(OC)c(NC(=O)c2ccc(OC3CSC3)cc2)c1`, the “activity change, negative = inhibition” value was “inactive”.
On to `O=C(Nc1cc(Cl)ccc1N1CCOCC1)c1ccc2c(c1)OCCO2`, for which the “activity change, negative = inhibition” value was “inactive”.
Regarding `CN(C(=O)CC1C(=O)NCCN1CC(c1ccccc1)c1ccccc1)C(C1CC1)C1CC1` (centres undefined), the “activity change, negative = inhibition” value is “inactive”.
The same measure, in the same setting: the value for `O=S(=O)(/N=C(/Nc1ccc(Cl)c(S(=O)(=O)N2CCOCC2)c1)c1ccc(F)cc1)c1ccccc1` was “inactive”.
As for `Cc1ccccc1-n1c(C)c(C#N)c(=O)c(-[n+]2ccccc2)c1[S-]`, the “activity change, negative = inhibition” value was “inactive”.
On the same count and under the same terms, the value for `CCC(C)(C)NC(=O)CSc1nc(Cc2ccccc2)nc2ccccc12` was “inactive”; that for `O=C(COC(=O)c1cccc(O)c1)NC(=O)Cc1ccccc1` was “inactive”.
On the same count and under the same terms, the value for `CCOC(=O)/C=C/C(=O)OCC(=O)Nc1ccc([N+](=O)[O-])cc1` was “inactive”; that for `Cc1cccc(C)c1NC(=S)NC(=O)c1ccc(Br)o1` was “inactive”.
As to `Cc1cccc(NC(=O)Cn2cnc3c(oc4ccccc43)c2=O)c1C`, the “activity change, negative = inhibition” value was “inactive”.
Still for that read-out and setting: then `CCOC(=O)/C(N=Nc1ccc2c(c1)OCO2)=C(\C)O`, with “inactive”; and `CCOc1ccc(C(=O)NC2CC3CCCC(C2)N3Cc2ccccc2)cc1` (centres undefined), with “inactive”; and `CCN(CC)S(=O)(=O)c1ccc2nc(NC(=O)c3ccco3)sc2c1`, with “inactive”.
Turning to `O=C(c1cc(Br)ccc1Cl)N1CCN(c2ccccn2)CC1`, the “activity change, negative = inhibition” value was “inactive”.
`NC(=O)c1cc2ccccc2o/c1=N\NC(=O)c1ccncc1`: the “activity change, negative = inhibition” value is “inactive”.
On the same count and under the same terms, then `Cc1ccc2nc(CSc3nnc(-c4ccncc4)n3C)cc(=O)n2c1`, with “inactive”; and `Cn1c(CNC(=O)OC(C)(C)C)n[nH]c1=S`, with “inactive”; and `Cc1ccc(SCC(=O)NCc2ccc(F)cc2)cc1`, with “inactive”.
With `O=C(NNC(=S)NC(=O)c1ccc(Br)cc1)c1ccc([N+](=O)[O-])cc1`, the “activity change, negative = inhibition” value was “inactive”.
For `O=C1CN(C(=O)CC2C(=O)NCCN2Cc2ccccc2C(F)(F)F)CCN1` (centres undefined), the “activity change, negative = inhibition” value is “inactive”.
For `COc1ccccc1C(=O)Nc1ccc2c(c1)CN(C(=O)CSC)CC2`, the “activity change, negative = inhibition” value was “inactive”.
On the same count and under the same terms, then `CC(C)(C)OC(=O)N[C@@H](Cc1c[nH]c2ccccc12)c1nnc(SCC(N)=O)o1`, with “inactive”; and `CCNS(=O)(=O)c1ccc(CCC(=O)N2CCCC2)cc1`, with “inactive”; and `O=C1c2ccccc2C(O)N1c1ccccc1` (centres undefined), with “inactive”.
Same read-out and setting: the value for `CCOC(=O)c1ccc(NC(=S)N2CCCC(C(=O)N3CCCC3)C2)cc1` (centres undefined) was “inactive”.
The same measure, in the same setting: then `O=[N+]([O-])c1ccccc1S(=O)(=O)NC1CCCCCCC1`, with “inactive”; and `CC(O)CNCCCOc1cccc(Oc2ccccc2)c1` (centres undefined), with “inactive”; and `CC(C)CNC(=O)CN1C(=O)NC(Cc2c[nH]c3ccccc23)C1=O` (centres undefined), with “inactive”.
For `CCOC(=O)C1(CCOc2ccccc2)CCN(CC(O)CO)CC1` (centres undefined), the “activity change, negative = inhibition” value was “inactive”.
Regarding `COc1ccc(C(=O)N2CCCc3ccccc32)cc1Br`, the “activity change, negative = inhibition” value was “inactive”.
Same read-out and setting: the value for `Cc1cccc(N(Cc2cc(=O)[nH]c3ccccc23)C(=O)C(C)C)c1` was “inactive”; that for `CN(C)C1(CNC(=O)C2CCC(=O)N(CCc3ccc(Cl)cc3)C2)CCCCC1` (centres undefined) was “inactive”; that for `C/C(=N\NC(=O)C(O)c1ccccc1)c1ccc(Cl)s1` (centres undefined) was “inactive”.
As for `Cc1ccccc1CN(C)C(C)C(=O)Nc1ccccc1F` (centres undefined), the “activity change, negative = inhibition” value was “inactive”.
Still for that read-out and setting: the value for `CS(=O)(=O)N(CC(=O)N1CCOCC1)c1cccc(F)c1` was “inactive”.
On the same count and under the same terms, the value for `CC(c1ccccc1)N1CCN(C(=O)CCl)CC1` (centres undefined) was “inactive”; that for `O=C(Nc1nc2ccccc2[nH]1)c1cc2ccccc2o1` was “inactive”.
With `COc1ccccc1Oc1coc2cc(OC(=O)N3CCOCC3)ccc2c1=O`, the “activity change, negative = inhibition” value is “inactive”.
Still for that read-out and setting: the value for `Cc1ccc(CNC2CCCCC2)s1` was “inactive”.
As for `C(=N\N1CCOCC1)/c1nc(-c2ccccc2)n2ccccc12`, the “activity change, negative = inhibition” value was “inactive”.
As for `O=C(NCc1cccnc1)c1ccc(Cn2c(=S)[nH]c3ccc(Br)cc3c2=O)cc1`, the “activity change, negative = inhibition” value was “inactive”.
